Test results reported in ChEMBL document CHEMBL2163299, “Cytotoxic effects of combination of oxidosqualene cyclase inhibitors with atorvastatin in human cancer cells” (J Med Chem, 2012).
The source made the active and inactive calls. The calls are words filed in the database; no cut-off is given here.

How the values were obtained:
[1] = Chemical stability of compound at pH 4.0 after 24 hrs; format: physicochemical; conditions: buffer, pH 4, 24 h
[2] = Chemical stability of compound at pH 7.4 after 24 hrs; format: physicochemical; conditions: buffer, pH 7.4, 24 h
Lanosterol synthase = target: T1, Lanosterol synthase (Homo sapiens, UniProt P48449); assay: Inhibition of human liver microsome 2,3-OSC after 1 hr by Silica gel plate phosphor imaging
T1 sequence (P48449 whole entry): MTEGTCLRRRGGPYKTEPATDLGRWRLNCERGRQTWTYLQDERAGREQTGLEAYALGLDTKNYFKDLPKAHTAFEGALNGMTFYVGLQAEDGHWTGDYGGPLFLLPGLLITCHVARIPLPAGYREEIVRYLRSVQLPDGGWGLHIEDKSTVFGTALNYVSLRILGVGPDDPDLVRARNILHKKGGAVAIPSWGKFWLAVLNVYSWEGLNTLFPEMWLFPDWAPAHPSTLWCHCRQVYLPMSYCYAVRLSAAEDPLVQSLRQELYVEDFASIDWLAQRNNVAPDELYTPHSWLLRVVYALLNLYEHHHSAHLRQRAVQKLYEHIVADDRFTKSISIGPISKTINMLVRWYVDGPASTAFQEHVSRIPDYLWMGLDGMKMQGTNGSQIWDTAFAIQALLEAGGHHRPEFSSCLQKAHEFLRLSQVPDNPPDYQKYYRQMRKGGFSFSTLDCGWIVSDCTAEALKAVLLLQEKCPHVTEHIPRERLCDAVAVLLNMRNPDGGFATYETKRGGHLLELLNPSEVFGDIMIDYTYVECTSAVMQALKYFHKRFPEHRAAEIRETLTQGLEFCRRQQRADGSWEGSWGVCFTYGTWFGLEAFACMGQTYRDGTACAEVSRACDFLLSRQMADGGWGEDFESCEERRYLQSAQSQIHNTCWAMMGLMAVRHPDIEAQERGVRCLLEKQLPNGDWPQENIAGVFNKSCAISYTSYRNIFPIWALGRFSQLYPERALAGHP

A549 = assay: Cytotoxicity against human A549 cells after 72 hrs by MTT assay; format: functional, cell-based; conditions: A549, 72 h
KB = assay: Cytotoxicity against human KB cells after 72 hrs by MTT assay; format: functional, cell-based
LNCaP = assay: Cytotoxicity against human LNCAP cells after 72 hrs by MTT assay; format: functional, cell-based
[3] = Cytotoxicity against human LNZ308 cells after 72 hrs by MTT assay; format: functional, cell-based; conditions: LNZ308, 72 h
[4] = Cytotoxicity against human Me300 cells after 72 hrs by MTT assay; format: functional, cell-based; conditions: Me300, 72 h
OVCAR = assay: Cytotoxicity against human OVCAR cells after 72 hrs by MTT assay; format: functional, cell-based
LN-18 = assay: Inhibition of DNA synthesis in human LN18 cells assessed as inhibition of tritiated thymidine incorporation at 1 to 3 uM after 24 hrs by beta counting; format: functional, cell-based
LN-229 = assay: Inhibition of DNA synthesis in human LN229 cells assessed as inhibition of tritiated thymidine incorporation at 1 to 3 uM after 24 hrs by beta counting; format: functional, cell-based
[5] = Cytotoxicity against human LN18 cells assessed as reduction in cell survival after 72 hrs by MTT assay; format: functional, cell-based; conditions: LN-18, 72 h
[6] = Cytotoxicity against human LN229 cells assessed as reduction in cell survival after 72 hrs by MTT assay; format: functional, cell-based; conditions: LN-229, 72 h
[7] = pampa, pH 6.5
Description: Permeability of compound at pH 6.5 assessed as compound binding to lipid membrane by PAMPA

Caco-2 = assay: cells; conditions: Homo sapiens, Caco-2, 72 h
Description: Cytotoxicity against human Caco2 cells after 72 hrs by MTT assay

HeLa = assay: cells; conditions: Homo sapiens, 72 h
Description: Cytotoxicity against human HeLa cells after 72 hrs by MTT assay

MCF7 = assay: cells; conditions: Homo sapiens, MCF7, 72 h
Description: Cytotoxicity against human MCF7 cells after 72 hrs by MTT assay

cells = conditions: Homo sapiens, HCEC, 72 h
Description: Cytotoxicity against human HCEC cells assessed as reduction in cell survival after 72 hrs by MTT assay

physchem = conditions: 1-octanol/TAPSO buffer, pH 7.4
Description: 1-Octanol-TAPSO buffer distribution coefficient, log D of the compound at pH 7.4 by shake-flask method

in vitro = conditions: pampa, pH 6.5
Description: Apparent permeability of compound at pH 6.5 by PAMPA

| Compound | Stability [1] | Stability [2] | IC50 (Lanosterol synthase) | IC50 (A549) | IC50 (KB) | IC50 (LNCaP) | IC50 [3] | IC50 [4] | IC50 (OVCAR) | inhibition (LN-18) | inhibition (LN-229) | IC50 [5] | IC50 [6] | permeability [7] | IC50 (Caco-2) | IC50 (HeLa) | IC50 (MCF7) | IC50 (cells) | logD (physchem) | Papp (in vitro) |
| --- | --- | --- | --- | --- | --- | --- | --- | --- | --- | --- | --- | --- | --- | --- | --- | --- | --- | --- | --- | --- |
| C=CCN(C)CCCCC[C@H]1CC[C@H](N(C)C(=O)Oc2ccc(C(F)(F)F)cc2)CC1.O=C(O)CC(O)(CC(=O)O)C(=O)O | Stable | Stable | 0.005 µM | 6.93 µM | 1.02 µM | 4.62 µM | 2.1 µM | 16 µM | 12.9 µM | Active | Active | 2.8 µM | 8.3 µM | 25% | 6.3 µM | 1.06 µM | 20.7 µM | 5.1 µM | 3.48 | 13 ×10⁻⁶ cm/s |
| CN(CCO)CCCCC[C@H]1CC[C@H](N(C)S(=O)(=O)c2ccc(C(F)(F)F)cc2)CC1.O=C(O)/C=C/C(=O)O | Stable | Stable | 0.0112 µM | 6.09 µM | 4.28 µM | > 30 µM | > 30 µM | 20.9 µM | > 30 µM | Active | Active | > 30 µM | > 30 µM | 50% | 2.67 µM | 4.53 µM | 12.3 µM | 19 µM | 3.07 | 1.79 ×10⁻⁶ cm/s |
| CN(CC[C@H]1CC[C@H](C(=O)N2CCC(O)CC2)CC1)C(=O)Oc1ccc(Cl)cc1 | Stable | Stable | 0.0287 µM | > 30 µM | 7.58 µM | 5.55 µM | > 30 µM | 25 µM | > 30 µM | Active | Active | > 30 µM | > 30 µM | 2% | > 30 µM | 21.8 µM | > 30 µM | > 30 µM | 2.93 | 5.05 ×10⁻⁶ cm/s |
| CCN(CCO)CCCC#C[C@H]1CC[C@H](N(C)C(=O)Oc2ccc(Cl)cc2)CC1.Cl | Stable | Stable | 0.01 µM | 13.6 µM | 5.86 µM | 23.6 µM | 15.3 µM | 26.2 µM | > 30 µM | Active | Active | 13.4 µM | 21.1 µM | 10% | 4.81 µM | 8.64 µM | > 30 µM | 29.1 µM | 2.51 | 2.87 ×10⁻⁶ cm/s |
| CCN(CCO)C[C@H]1CC[C@H](CCN(C)C(=O)Oc2ccc(C(F)(F)F)cc2)CC1.O=C(O)CC(O)(CC(=O)O)C(=O)O | Stable | Stable | 0.0127 µM | 22.7 µM | 10 µM | > 30 µM | 23.2 µM | > 30 µM | > 30 µM | Active | Active | 18.9 µM | > 30 µM | 5% | 10 µM | 10 µM | > 30 µM | > 30 µM | 2.53 | 5.11 ×10⁻⁶ cm/s |
| CCCN(C)CCCC#C[C@H]1CC[C@H](N(C)C(=O)Oc2ccc(Cl)cc2)CC1.O=C(O)/C=C/C(=O)O | Stable | Stable | 0.0078 µM | 8.41 µM | 4.53 µM | 18.7 µM | 12.6 µM | 18.9 µM | > 30 µM | Active | Active | 28 µM | > 30 µM | 0% | 6.75 µM | 6.82 µM | > 30 µM | 26.3 µM | 3.28 | 0.81 ×10⁻⁶ cm/s |
